Experiments:
Details in all cases: 72 h
Calu-3 [1] = assay: cell viability relative to DMSO; higher = less toxic
U2OS [2] = assay: as above
HepG2 [3] = assay: as above
Caco-2 [4] = assay: as above
Vero E6 [5] = assay: as above
Calu-3 [6] = assay: drug sensitivity score (DSS) for viability; higher = more toxic; extreme values may be limits of the assay
U2OS [7] = assay: as above
HepG2 [8] = assay: as above
Caco-2 [9] = assay: as above
Vero E6 [10] = assay: as above
Calu-3 [11] = assay: relative viability EC50 (midpoint between 100% and the lowest measured viability); higher = less toxic
U2OS [12] = assay: as above
HepG2 [13] = assay: as above
Caco-2 [14] = assay: as above
Vero E6 [15] = assay: as above

Structure (SMILES)	cell viability (Calu-3 [1]; 1 nM) [%]	cell viability (Calu-3 [1]; 10 nM) [%]	cell viability (Calu-3 [1]; 100 nM) [%]	cell viability (Calu-3 [1]; 1000 nM) [%]	cell viability (Calu-3 [1]; 10000 nM) [%]	cell viability (U2OS [2]; 1 nM) [%]	cell viability (U2OS [2]; 10 nM) [%]	cell viability (U2OS [2]; 100 nM) [%]	cell viability (U2OS [2]; 1000 nM) [%]	cell viability (U2OS [2]; 10000 nM) [%]	cell viability (HepG2 [3]; 1 nM) [%]	cell viability (HepG2 [3]; 10 nM) [%]	cell viability (HepG2 [3]; 100 nM) [%]	cell viability (HepG2 [3]; 1000 nM) [%]	cell viability (HepG2 [3]; 10000 nM) [%]	cell viability (Caco-2 [4]; 1 nM) [%]	cell viability (Caco-2 [4]; 10 nM) [%]	cell viability (Caco-2 [4]; 100 nM) [%]	cell viability (Caco-2 [4]; 1000 nM) [%]	cell viability (Caco-2 [4]; 10000 nM) [%]	cell viability (Vero E6 [5]; 1 nM) [%]	cell viability (Vero E6 [5]; 10 nM) [%]	cell viability (Vero E6 [5]; 100 nM) [%]	cell viability (Vero E6 [5]; 1000 nM) [%]	cell viability (Vero E6 [5]; 10000 nM) [%]	drug sensitivity score (Calu-3 [6])	drug sensitivity score (U2OS [7])	drug sensitivity score (HepG2 [8])	drug sensitivity score (Caco-2 [9])	drug sensitivity score (Vero E6 [10])	relative viability EC50 (Calu-3 [11]) [µM]	relative viability EC50 (U2OS [12]) [µM]	relative viability EC50 (HepG2 [13]) [µM]	relative viability EC50 (Caco-2 [14]) [µM]	relative viability EC50 (Vero E6 [15]) [µM]
Clc1ccc(Cn2c(CN3CCCC3)nc3ccccc32)cc1 [clemizole]	95.7	98.4	101	101	107	101	97.7	98.6	105	97.8	112	111	94.3	106	89.1	95.5	94.7	97.6	97	84.7	102	104	103	99.2	92.3	0	0	0	0.5	0	> 10	> 10	> 10	> 10	> 10
c1ccc(-c2n[nH]cc2-c2ccnc3ccccc23)nc1	95.5	105	110	105	105	94.1	97.9	95.9	98.9	91.4	110	96.4	107	102	116	96.4	93.1	92.7	103	97.3	94.1	99.4	99.4	89.3	104	0	0	0	0	0	> 10	> 10	> 10	> 10	> 10
NC(N)=Nc1nc(CSCC/C(N)=N/S(N)(=O)=O)cs1 [Famotidine]	84	106	89.8	106	90.1	98	104	98.6	108	97.5	101	97.4	87.9	100	85.4	101	101	93.9	96.8	96.8	106	105	95.2	102	96.7	0	0	0	0	0	> 10	> 10	> 10	> 10	> 10
CCn1nc(C)c2c1C(c1ccccc1)=NCC(=O)N2 [ripazepam]	97.4	102	95.6	109	95.8	96.4	99.1	93.2	102	98.2	106	100	98.9	92.2	113	96.9	103	104	101	124	95.6	99.9	104	100	97.1	0	0	0	0	0	> 10	> 10	> 10	> 10	> 10
c1ccc2c(c1)[I+]c1ccccc1-2 [diphenyleneiodonium]	92.6	94.5	78.8	69.1	44.9	95.4	95.1	64.8	39.3	20.7	110	87.7	14.9	8.2	2.4	92.9	97.3	72.3	61.9	37	94.9	95	65.9	38.9	25.1	8.6	16	29.3	10.8	15.8	0.308	0.16	0.0322	0.251	0.137
CN1CCN(CCCCN2C(=O)CN(/N=C/c3ccc(-c4ccc(Cl)cc4)o3)C2=O)CC1 [azimilide]	86.7	96.6	91	106	92.1	103	97.1	99.8	98.2	98.5	99.8	106	101	103	85.3	97.4	102	94.4	98.7	94.5	101	98.7	100	96.9	98.1	0	0	0.1	0	0	> 10	> 10	> 10	> 10	> 10
CCCCC/C=C\C=C\CCCCCCCCC(=O)O [trans-10,cis-12-conjugated-linoleic-acid]	102	96.1	100	96.2	101	97.8	96.8	103	97.4	102	107	92	90.8	101	100	94.9	101	96.6	101	99.6	109	108	102	102	99.1	0	0	0	0	0	> 10	> 10	> 10	> 10	> 10
